From patent US10399940B2, “Substituted pyrrolidines and methods of use” (AbbVie S.à.r.l., priority 2016, dated 2019)
Read-outs that look alike come from different tables or passages of the source.

Target: T1, F508delCFTR (Homo sapiens, UniProt P13569, DEL508-508)
T1 construct: expressed in transfected cells; host or cells: CFBE41o- (human lung derived epithelial cell line), doxycycline-inducible expression
Assay: Cell Surface Expression-Horse Radish Peroxidase (CSE-HRP) assay
Type: cell-based
Conditions: CFBE41o-F508delCFTR-HRP cells; for Maximum % activity (with co-corrector): with co-corrector (2 μM); for Maximum % activity (with co-corrector) / Maximum % activity (without co-corrector): normalized to on-plate positive control, highest concentration 20 μM
Outline: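 Surface F508delCFTR-HRP was read by luminol luminescence after 18–24 h compound exposure at 33 °C, without or with 2 μM co-corrector. Doses were eight 3-fold steps from 20 μM, in doxycycline-induced (0.5 μg/mL, 72 h) CFBE41o- cells. % activity was scaled to the on-plate 2 μM positive control minus DMSO; EC50 came from a variable-slope sigmoid fit.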

[1] = test compound without co-corrector, 18-24 hours at 33° C., read-out: EC50 (without co-corrector)
[2] = with co-corrector (2 μM of 3-[(2R,4R)-4-({[1-(2,2-difluoro-1,3-benzodioxol-5-yl)cyclopropyl]carbonyl}amino)-7-methoxy-3,4-dihydro-2H-chromen-2-yl]benzoic acid), read-out: EC50 (with co-corrector)

T1 sequence (P13569 with tags, fused parts or gaps DEL508-508): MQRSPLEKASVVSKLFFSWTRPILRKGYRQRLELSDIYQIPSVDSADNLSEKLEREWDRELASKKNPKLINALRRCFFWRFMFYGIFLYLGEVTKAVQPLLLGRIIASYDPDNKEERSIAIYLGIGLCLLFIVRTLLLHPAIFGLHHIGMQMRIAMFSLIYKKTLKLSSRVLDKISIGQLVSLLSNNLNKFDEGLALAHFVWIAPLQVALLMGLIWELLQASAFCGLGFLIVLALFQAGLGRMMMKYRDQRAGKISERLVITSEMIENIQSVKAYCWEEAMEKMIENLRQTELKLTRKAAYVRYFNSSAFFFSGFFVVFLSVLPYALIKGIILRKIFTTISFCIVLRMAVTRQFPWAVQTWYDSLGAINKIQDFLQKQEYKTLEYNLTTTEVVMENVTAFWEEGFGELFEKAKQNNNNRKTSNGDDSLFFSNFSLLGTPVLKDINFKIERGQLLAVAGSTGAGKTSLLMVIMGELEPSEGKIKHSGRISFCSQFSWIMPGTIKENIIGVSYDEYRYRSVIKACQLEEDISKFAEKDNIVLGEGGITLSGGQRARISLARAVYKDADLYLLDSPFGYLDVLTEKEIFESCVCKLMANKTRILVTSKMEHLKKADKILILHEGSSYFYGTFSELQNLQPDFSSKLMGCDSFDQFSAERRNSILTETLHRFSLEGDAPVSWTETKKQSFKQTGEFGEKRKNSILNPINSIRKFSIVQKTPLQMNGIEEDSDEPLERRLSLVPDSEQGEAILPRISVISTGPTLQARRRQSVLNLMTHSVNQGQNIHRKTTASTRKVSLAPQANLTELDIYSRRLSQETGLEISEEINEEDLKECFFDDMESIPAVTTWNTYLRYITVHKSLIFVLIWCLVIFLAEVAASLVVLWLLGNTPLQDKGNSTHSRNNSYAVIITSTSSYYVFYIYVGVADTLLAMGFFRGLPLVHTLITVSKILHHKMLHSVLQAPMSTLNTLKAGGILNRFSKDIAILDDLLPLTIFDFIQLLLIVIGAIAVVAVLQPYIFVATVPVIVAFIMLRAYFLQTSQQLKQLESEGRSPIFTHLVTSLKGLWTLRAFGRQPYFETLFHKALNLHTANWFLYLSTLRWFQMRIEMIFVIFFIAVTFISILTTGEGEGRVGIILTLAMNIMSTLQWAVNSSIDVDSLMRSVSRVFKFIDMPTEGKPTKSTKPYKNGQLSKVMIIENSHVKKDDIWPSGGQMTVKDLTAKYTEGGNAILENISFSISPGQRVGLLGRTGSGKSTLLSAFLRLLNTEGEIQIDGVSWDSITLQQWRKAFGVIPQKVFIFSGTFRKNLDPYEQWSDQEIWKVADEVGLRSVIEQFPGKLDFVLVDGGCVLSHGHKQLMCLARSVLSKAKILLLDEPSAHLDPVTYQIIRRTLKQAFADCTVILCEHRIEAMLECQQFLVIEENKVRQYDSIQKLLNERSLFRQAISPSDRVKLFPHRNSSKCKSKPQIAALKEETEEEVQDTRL

EC50 [1] [nM] | EC50 [2] [nM] | Maximum % activity (with co-corrector) | Maximum % activity (without co-corrector) | Structure (SMILES)
< 1000 | < 1000 | +++ (≥350) | +++ (≥200) | [2H]C([2H])(O[C@H]1[C@H](C(C)(C)C)[C@@H](C(=O)O)N(C(=O)[C@@H]2CCCCO2)[C@H]1c1ccccc1C)c1cc(C(C)(C)C)ccc1OC [Example 235, (2S,3R,4S,5S)-3-tert-butyl-4-{[(5-tert-butyl-2-methoxyphenyl)(^2H2)methyl]oxy}-5-(2-methylphenyl)-1-[(2S)-oxane-2-carbonyl]pyrrolidine-2-carboxylic acid]
1000 to 10000 | 1000 to 10000 | +++ (≥350) | ++ (≥100 and <200) | Cc1cc(C)c2cc(CO[C@H]3[C@H](C(C)(C)C)[C@@H](C(=O)O)N(C(=O)[C@@H]4CCCCO4)[C@H]3c3ccccc3C)c(Cl)nc2c1 [Example 236, (2S,3R,4S,5S)-3-tert-butyl-4-[(2-chloro-5,7-dimethylquinolin-3-yl)methoxy]-5-(2-methylphenyl)-1-[(2S)-oxane-2-carbonyl]pyrrolidine-2-carboxylic acid]
1000 to 10000 | < 1000 | +++ (≥350) | +++ (≥200) | COc1nc2c(C)ccc(C)c2cc1CO[C@H]1[C@H](C(C)(C)C)[C@@H](C(=O)O)N(C(=O)[C@@H]2CCCCO2)[C@H]1c1ccccc1C [Example 237, (2S,3R,4S,5S)-3-tert-butyl-4-[(2-methoxy-5,8-dimethylquinolin-3-yl)methoxy]-5-(2-methylphenyl)-1-[(2S)-oxane-2-carbonyl]pyrrolidine-2-carboxylic acid]
1000 to 10000 | < 1000 | +++ (≥350) | +++ (≥200) | COc1nc2cc(C)cc(C)c2cc1CO[C@H]1[C@H](C(C)(C)C)[C@@H](C(=O)O)N(C(=O)[C@@H]2CCCCO2)[C@H]1c1ccccc1C [Example 238, (2S,3R,4S,5S)-3-tert-butyl-4-[(2-methoxy-5,7-dimethylquinolin-3-yl)methoxy]-5-(2-methylphenyl)-1-[(2S)-oxane-2-carbonyl]pyrrolidine-2-carboxylic acid]
1000 to 10000 | < 1000 | +++ (≥350) | ++ (≥100 and <200) | COc1ccccc1[C@H]1[C@@H](OCc2cc(C3CCC3)cnc2OC)[C@H](C(C)(C)C)[C@@H](C(=O)O)N1C(=O)[C@@H]1CCCCO1 [Example 239, (2S,3R,4S,5S)-3-tert-butyl-4-[(5-cyclobutyl-2-methoxypyridin-3-yl)methoxy]-5-(2-methoxyphenyl)-1-[(2S)-oxane-2-carbonyl]pyrrolidine-2-carboxylic acid]
1000 to 10000 | < 1000 | +++ (≥350) | ++ (≥100 and <200) | COc1ccccc1[C@H]1[C@@H](OCc2cc(C(F)(F)F)cnc2OC)[C@H](C(C)(C)C)[C@@H](C(=O)O)N1C(=O)[C@@H]1CCCCO1 [Example 240, (2S,3R,4S,5S)-3-tert-butyl-5-(2-methoxyphenyl)-4-{[2-methoxy-5-(trifluoromethyl)pyridin-3-yl]methoxy}-1-[(2S)-oxane-2-carbonyl]pyrrolidine-2-carboxylic acid]
1000 to 10000 | < 1000 | +++ (≥350) | +++ (≥200) | COc1ccccc1[C@H]1[C@@H](OCc2cc(C(C)(C)C)cnc2OC)[C@H](C(C)(C)C)[C@@H](C(=O)O)N1C(=O)[C@@H]1CCCCO1 [Example 241, (2S,3R,4S,5S)-3-tert-butyl-4-[(5-tert-butyl-2-methoxypyridin-3-yl)methoxy]-5-(2-methoxyphenyl)-1-[(2S)-oxane-2-carbonyl]pyrrolidine-2-carboxylic acid]
1000 to 10000 | 1000 to 10000 | +++ (≥350) | ++ (≥100 and <200) | COc1nc2c(C)cc(C)cc2cc1CO[C@H]1[C@H](C(C)(C)C)[C@@H](C(=O)O)N(C(=O)[C@@H]2CCCCO2)[C@H]1c1ccccc1C [Example 242, (2S,3R,4S,5S)-3-tert-butyl-4-[(2-methoxy-6,8-dimethylquinolin-3-yl)methoxy]-5-(2-methylphenyl)-1-[(2S)-oxane-2-carbonyl]pyrrolidine-2-carboxylic acid]
1000 to 10000 | < 1000 | +++ (≥350) | +++ (≥200) | COc1ncc(C2(C)CC2)cc1CO[C@H]1[C@H](C(C)(C)C)[C@@H](C(=O)O)N(C(=O)[C@@H]2CCCCO2)[C@H]1c1ccccc1C [Example 243, (2S,3R,4S,5S)-3-tert-butyl-4-{[2-methoxy-5-(1-methylcyclopropyl)pyridin-3-yl]methoxy}-5-(2-methylphenyl)-1-[(2S)-oxane-2-carbonyl]pyrrolidine-2-carboxylic acid]
1000 to 10000 | 1000 to 10000 | +++ (≥350) | ++ (≥100 and <200) | COc1nc2c(C)cccc2cc1CO[C@H]1[C@H](C(C)(C)C)[C@@H](C(=O)O)N(C(=O)[C@@H]2CCCCO2)[C@H]1c1ccccc1C [Example 244, (2S,3R,4S,5S)-3-tert-butyl-4-[(2-methoxy-8-methylquinolin-3-yl)methoxy]-5-(2-methylphenyl)-1-[(2S)-oxane-2-carbonyl]pyrrolidine-2-carboxylic acid]
1000 to 10000 | 1000 to 10000 | +++ (≥350) | +++ (≥200) | COc1ccc(C(C)(C)C)cc1CO[C@H]1[C@H](C(C)(C)C)[C@@H](C(=O)O)N(C(=O)OC(C)C)[C@H]1c1cccnc1OC(C)C [Example 245, (2S,3R,4S,5S)-3-tert-butyl-4-[(5-tert-butyl-2-methoxyphenyl)methoxy]-1-{[(propan-2-yl)oxy]carbonyl}-5-{2-[(propan-2-yl)oxy]pyridin-3-yl}pyrrolidine-2-carboxylic acid]
1000 to 10000 | < 1000 | +++ (≥350) | +++ (≥200) | COc1ccc(C2(C)CCC2)cc1CO[C@H]1[C@H](C(C)(C)C)[C@@H](C(=O)O)N(C(=O)OC(C)C)[C@H]1c1cccnc1OC(C)C [Example 246, (2S,3R,4S,5S)-3-tert-butyl-4-{[2-methoxy-5-(1-methylcyclobutyl)phenyl]methoxy}-1-{[(propan-2-yl)oxy]carbonyl}-5-{2-[(propan-2-yl)oxy]pyridin-3-yl}pyrrolidine-2-carboxylic acid]
1000 to 10000 | 1000 to 10000 | +++ (≥350) | +++ (≥200) | COc1ccc(C(C)(C)C)cc1CO[C@H]1[C@H](C(C)(C)C)[C@@H](C(=O)O)N(C(=O)[C@@H]2CCCO2)[C@H]1c1ccccc1C [Example 247, (2S,3R,4S,5S)-3-tert-butyl-4-[(5-tert-butyl-2-methoxyphenyl)methoxy]-5-(2-methylphenyl)-1-[(2S)-oxolane-2-carbonyl]pyrrolidine-2-carboxylic acid]
1000 to 10000 | 1000 to 10000 | +++ (≥350) | +++ (≥200) | COc1nc2c(C)ccc(C)c2cc1CO[C@H]1[C@H](C(C)(C)C)[C@@H](C(=O)O)N(C(=O)C2CCCCC2)[C@H]1c1cccnc1OC(C)C [Example 248, (2S,3R,4S,5S)-3-tert-butyl-1-(cyclohexanecarbonyl)-4-[(2-methoxy-5,8-dimethylquinolin-3-yl)methoxy]-5-{2-[(propan-2-yl)oxy]pyridin-3-yl}pyrrolidine-2-carboxylic acid]
1000 to 10000 | < 1000 | +++ (≥350) | +++ (≥200) | C=C(CO[C@H]1[C@H](C(C)(C)C)[C@@H](C(=O)O)N(C(=O)[C@@H]2CCCCO2)[C@H]1c1ccccc1C)c1cc(C(F)(F)F)ccc1OC [Example 249, (2S,3R,4S,5S)-3-tert-butyl-4-({2-[2-methoxy-5-(trifluoromethyl)phenyl]prop-2-en-1-yl}oxy)-5-(2-methylphenyl)-1-[(2S)-oxane-2-carbonyl]pyrrolidine-2-carboxylic acid]
< 1000 | < 1000 | +++ (≥350) | ++ (≥100 and <200) | COc1ncc(C(C)(C)C)cc1CO[C@H]1[C@H](C(C)(C)C)[C@@H](C(=O)O)N(C(=O)C2CCCCC2)[C@H]1c1cccnc1OC(C)C [Example 250, (2S,3R,4S,5S)-3-tert-butyl-4-[(5-tert-butyl-2-methoxypyridin-3-yl)methoxy]-1-(cyclohexanecarbonyl)-5-{2-[(propan-2-yl)oxy]pyridin-3-yl}pyrrolidine-2-carboxylic acid]
< 1000 | < 1000 | +++ (≥350) | +++ (≥200) | COc1ccc(C(C)(C)C)cc1CO[C@H]1[C@H](C(C)(C)C)[C@@H](C(=O)O)N(C(=O)C2CCCCC2)[C@H]1c1cccnc1OC(C)C [Example 251, (2S,3R,4S,5S)-3-tert-butyl-4-[(5-tert-butyl-2-methoxyphenyl)methoxy]-1-(cyclohexanecarbonyl)-5-{2-[(propan-2-yl)oxy]pyridin-3-yl}pyrrolidine-2-carboxylic acid]
